We go through 2 molecules from PMC10233829 (ACS Omega, 2023).

SMILES strings stand for the structures. Converted amounts (≈) assume the structure as drawn. Like-named read-outs stand apart in the source and are kept apart here.

Data set [1] relates to P. aeruginosa ATCC 15442. Description: MIC, twofold microdilution, standard strain. It counts as cell-based, Pseudomonas aeruginosa. Conditions: Pseudomonas aeruginosa, ATCC15442; standard strain, 18 h. (In general: Dilution methods test growth across graded concentrations, often in twofold steps.)
Data set [2] relates to S. epidermidis ATCC 35984. Description: MIC, twofold microdilution, standard strain. It counts as cell-based. Conditions: Staphylococcus epidermidis, ATCC35984, 18 h.
The test system of data set [3] is S. epidermidis ATCC 12228. Description: MIC, twofold microdilution, standard strain. Type of data set: cell-based. Conditions: Staphylococcus epidermidis, ATCC12228, 18 h.
Data set [4] deals with P. aeruginosa 659. Description: MIC, twofold microdilution, clinical strain. It counts as cell-based. Conditions: Pseudomonas aeruginosa, 18 h.
The subject of data set [5] is Staphylococci (standard strains). Description: MIC, standard Gram-positive strains as a panel. It counts as cell-based, S. aureus, S. epidermidis. Conditions: read-out: MIC toward standard Staphylococci (range over strains).
Data set [6] concerns M. tuberculosis H37Rv. Description: Tuberculostatic activity, Microplate Alamar Blue Assay (MIC). Type of data set: cell-based, Mycobacterium tuberculosis. The following applies: Mycobacterium tuberculosis, H37RV; MABA; read-out: MIC M. tuberculosis H37Rv. In general terms: The colour change of resazurin is a common sign of viable cells or microbes.
Data set [7] relates to E. coli 951. Description: MIC, twofold microdilution, clinical strain. The following applies: Escherichia coli, 18 h. Type of data set: cell-based.
The subject of data set [8] is clinical bacterial strains. Description: MIC, clinical isolates as groups of strains. It counts as cell-based.
The test system of data set [9] is K. pneumoniae 510. Description: MIC, twofold microdilution, clinical strain. Type of data set: cell-based, Klebsiella pneumoniae. The following applies: Klebsiella pneumoniae, 510; clinical strain, 18 h.
The test system of data set [10] is P. aeruginosa ATCC 15442 and E. coli ATCC 25922. Description: MIC, standard Gram-negative rods as a panel. The following applies: P. aeruginosa ATCC 15442, E. coli ATCC 25922; read-out: MIC against standard Gram-negative rods (range over strains). Type of data set: cell-based.
For data set [11], the system named is S. aureus ATCC 25923. Description: MIC, twofold microdilution, standard strain. It counts as cell-based. Conditions: Staphylococcus aureus, ATCC25923, 18 h.
Data set [12] deals with S. aureus T5595. Description: MIC, twofold microdilution, clinical strain. Type of data set: cell-based, Staphylococcus aureus.
For data set [13], the system named is E. coli 600. Description: MIC, twofold microdilution, clinical strain. It counts as cell-based, Escherichia coli. Conditions: Escherichia coli, 600, 18 h.
Data set [14] deals with E. cloacae 8. Description: MIC, twofold microdilution, clinical strain. Type of data set: cell-based, Escherichia cloacae. The following applies: Enterobacter cloacae, 8; clinical strain, 18 h.
Data set [15] concerns S. epidermidis 5253. Description: MIC, twofold microdilution, clinical strain. Type of data set: cell-based, Staphylococcus epidermidis.
Data set [16] relates to P. aeruginosa 37. Description: MIC, twofold microdilution, clinical strain. It counts as cell-based. Conditions: Pseudomonas aeruginosa, 18 h.
Data set [17] deals with S. epidermidis KR4243/1. Description: MIC, twofold microdilution, clinical strain. Type of data set: cell-based. The following applies: Staphylococcus epidermidis, 18 h.
In data set [18] the test system is S. pasteuri KR 4358. Description: MIC, twofold microdilution, clinical strain. Type of data set: cell-based. Conditions: Staphylococcus pasteuri, KR4358, 18 h.
The subject of data set [19] is PC3 cells. Description: MTT assay, cytotoxic activity. Conditions: Homo sapiens, PC-3, 72 h, MTT, 72 h. It counts as cell-based, human. In outline:
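Cytotoxicity readout: relative MTT level (%), i.e. absorbance of compound-treated PC3 cells divided by that of untreated controls, ×100. Cultures were kept in a humidified 37 °C, 5% CO2 incubator.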

Data set [20] has as its system S. aureus T5591. Description: MIC, twofold microdilution, clinical strain. Type of data set: cell-based, Staphylococcus aureus.
The subject of data set [21] is S. aureus 5595. Description: MIC, twofold microdilution, clinical strain. The following applies: Staphylococcus aureus, 18 h. It counts as cell-based.
Data set [22] relates to K. pneumoniae 28. Description: MIC, twofold microdilution, clinical strain. Type of data set: cell-based. The following applies: Klebsiella pneumoniae, 18 h.
Data set [23] deals with S. aureus NCTC 4163. Description: MIC, twofold microdilution, standard strain. It counts as cell-based. Conditions: Staphylococcus aureus, NCTC4163, 18 h.
The test system of data set [24] is E. coli 520. Description: MIC, twofold microdilution, clinical strain. Type of data set: cell-based. The following applies: Escherichia coli, 18 h.
The target in data set [25] is T1, S. aureus topoisomerase IV (Staphylococcus aureus, UniProt P0C1S7+P0C1U9).
T1 construct: purchased Inspiralis, Norwich, UK
Description: Topoisomerase IV decatenation assay. It counts as biochemical. Conditions: decatenation of kinetoplast DNA.

The test system of data set [26] is S. aureus 180. Description: MIC, twofold microdilution, clinical strain. Type of data set: cell-based. Conditions: Staphylococcus aureus, 18 h.
In data set [27] the test system is S. aureus ATCC 29213. Description: MIC, twofold microdilution, standard strain. Type of data set: cell-based. Conditions: Staphylococcus aureus, ATCC29213, 18 h.
Data set [28] deals with S. aureus DNA gyrase (Staphylococcus aureus, UniProt P0A0K8+P20831). Description: biochemical. The following applies: supercoiling of relaxed pBR322. The protocol: The enzymatic assay was carried using commercial topoisomerases type II as previously described by Alt et al.[55] with some modifications.
Briefly, 1 U of the enzyme (gyrase or topo IV, Inspiralis. Norwich, UK) isolated from S. aureus converts […] of relaxed pBR322 DNA to the supercoiled form (gyrase) or decatenates 200 ng of kinetoplast DNA (topo IV). […] The reactions were terminated by adding an equal volume of STEB buffer (40% sucrose, 100 mM Tris–HCl pH 8, 10 mM EDTA, and 0.5 mg/mL bromophenol blue), followed by extraction with 1 volume of chloroform/isoamyl alcohol (24:1). The samples were vortexed and centrifuged, and 20 μL of the aqueous phase of each sample was loaded onto a 1% agarose gel and left for 30 min prior to electrophoresis to allow diffusion of salt. […] Gels were stained with ethidium bromide and visualized under UV light in a transilluminator (ChemiDoc MP, Bio Rad).

A short description of data set [29]: MTT assay, cytotoxic activity. Type of data set: cell-based. Conditions: human, HaCaT cells (immortal keratinocytes); MTT, 72 h, normal cell line; read-out: IC50 HaCaT. In outline:
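Viability was calculated as A/B × 100%, with A the absorbance of treated samples and B that of untreated controls, from MTT reduction. Cells were cultured in a humidified 37 °C/5% CO2 incubator.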
On the technique in general: Formazan colour is commonly taken as a measure of viable cells.

For data set [30], the system named is E. coli ATCC 25922. Description: MIC, twofold microdilution, standard strain. It counts as cell-based, Escherichia coli. The following applies: Escherichia coli, ATCC25922; standard strain, 18 h.
For data set [31], the system named is S. aureus ATCC 6538. Description: MIC, twofold microdilution, standard strain. It counts as cell-based, Staphylococcus aureus. The following applies: Staphylococcus aureus, ATCC6538; standard strain, 18 h.
Data set [32] relates to S. epidermidis 4341. Description: MIC, twofold microdilution, clinical strain. The following applies: Staphylococcus epidermidis, 18 h. It counts as cell-based.
The subject of data set [33] is M. tuberculosis Spec. 192. Description: Tuberculostatic activity, Microplate Alamar Blue Assay (MIC). Type of data set: cell-based. Conditions: Mycobacterium tuberculosis, MABA, read-out: MIC M. tuberculosis Spec. 192 (sensitive to tuberculostatics).

By MIC is commonly meant the lowest concentration that inhibits growth of the organism. A word on the IC50: it is the concentration needed to halve the response being measured.

Consider `O=C(O)c1cn(C2CC2)c2cc(N3CCN(C(=O)CCCCCl)CC3)c(F)cc2c1=O` [Compound 6, 7-[4-(5-Chloropentanoyl)-piperazin-1-yl]-1-cyclopropyl-6-fluoro-4-oxo-1,4-dihydro-quinoline-3-carboxylic Acid], for which the MIC in [1] was 1.6 µg/mL (≈ 3.56 µM); in [2], 0.2 µg/mL (≈ 0.445 µM); in [3], 0.2 µg/mL (≈ 0.445 µM); in data set [4] it was 12.8 µg/mL (≈ 28.5 µM); in data set [5], 0.1 to 0.8 µg/mL (≈ 0.222 to 1.78 µM); in data set [6], 0.5 µg/mL (≈ 1.11 µM). Further, the MIC in data set [7] is 12.8 µg/mL (≈ 28.5 µM); in [8] (clinical strains, read-out: MIC against selected E. coli and E. cloacae strains) it was 0.1 to 0.8 µg/mL (≈ 0.222 to 1.78 µM); in data set [9] it was more than 25.6 µg/mL; in data set [10] it was not above 1 µg/mL; in data set [11], 0.2 µg/mL (≈ 0.445 µM); in data set [12] (Staphylococcus aureus, T5595, 18 h), 0.1 to 0.2 µg/mL (≈ 0.222 to 0.445 µM). For the same molecule, the MIC in data set [13] is 0.4 µg/mL (≈ 0.889 µM); in data set [14], 0.8 µg/mL (≈ 1.78 µM); in [15] (Staphylococcus epidermidis, 5253, 18 h) it was 12.8 to 25.6 µg/mL (≈ 28.5 to 56.9 µM); in data set [16] it was 6.4 µg/mL (≈ 14.2 µM); in data set [17] it was 0.2 µg/mL (≈ 0.445 µM); in [18], 0.2 µg/mL (≈ 0.445 µM). Besides, the MIC is 0.1 to 0.2 µg/mL (≈ 0.222 to 0.445 µM) in data set [20] (Staphylococcus aureus, T5591, 18 h); 0.1 µg/mL (≈ 0.222 µM) in [21]; more than 25.6 µg/mL in data set [22]; 0.2 µg/mL (≈ 0.445 µM) in data set [23]; 0.4 µg/mL (≈ 0.889 µM) in data set [24]; 0.1 µg/mL (≈ 0.222 µM) in data set [26]. The MIC was 0.2 µg/mL (≈ 0.445 µM) in [27]; 0.2 µg/mL (≈ 0.445 µM) in data set [30]; 0.2 µg/mL (≈ 0.445 µM) in data set [31]; 6.4 µg/mL (≈ 14.2 µM) in data set [32]; 0.5 µg/mL (≈ 1.11 µM) in data set [33]. Also, the “fold more effective than CP” value in [8] (S. aureus 180 and 5595) turned out to be 5 fold. For the same molecule, the “times more powerful than CP” value in data set [8] (S. aureus T5595 and T5591) is recorded as 1.25–2.5 times. Moreover, the “MIC S. aureus T5595” value in [12] (18 h) came to 0.2 µg/mL (≈ 0.445 µM). Also, in [15] (18 h), the “MIC S. epidermidis 5253” value is 12.8 µg/mL (≈ 28.5 µM). Also, the IC50 in data set [19] is 108 ± 11 µM; in [25] (read-out: IC50 S. aureus topoisomerase IV (converted)) it was 17.8 µM; in [28] it was 12 µM. Further, in data set [20] (18 h), the “MIC S. aureus T5591” value is 0.2 µg/mL (≈ 0.445 µM). Also, the IC50 at 72 h in [29] stood at 19.7 ± 2.8 µM.
In the case of `COc1c(N2C[C@@H]3CCCN[C@@H]3C2)c(F)cc2c(=O)c(C(=O)O)cn(C3CC3)c12` [MXF, moxifloxacin, reference compound], it took 3.74 µM to reach half-maximal inhibition in data set [25] (IC50 S. aureus topoisomerase IV) (IC50).
